Results from EP2165709B1, “Pharmaceutical compositions comprising a lysine based compound and an HIV antiviral or antiretroviral agent” (Ambrilia Biopharma Inc., priority 2004, dated 2006).
Read-outs that look alike come from different tables or passages of the source.

Key:
[1] = Partition coefficient (LogP), octanol / phosphate buffer pH 7.4; type: physicochemical; settings: octanol and phosphate buffer pH 7.4 (0.04 M KHPO4), LC-MS detection
From the text: The concentration of the compounds in the phases was detected by LC-MS.

[2] = Bioavailability: plasma concentration after oral administration to rats; type: in vivo, male Sprague-Dawley rats; settings: rat; for Cmax / Tmax: male, Sprague-Dawley, plasma, vehicle Mix; for Cmax / Tmax / AUC / delivery of PL-100 and PL-337 compared to non-aqueous formulations of PL-100 and PL-337: 50 mg/Kg po; for delivery of PL-100 and PL-337 compared to non-aqueous formulations of PL-100 and PL-337: aqueous dosing; for administered compound detected in the blood samples: po, delivered as aqueous solutions, suggests rapid metabolism to parent drugs
Procedure: To assess the extent of in vivo cleavage of the phosphate group from the putative compounds, PL-100, PL-462 (based on PL-100), PL-337 and PL-515 (based on PL-337) compounds were administered po (50 mg/kg) to male Sprague-Dawley rats and their plasma concentration measured at different time intervals post-administration. All test articles (PL-100, PL-462, PL-337 and PL-515) were prepared in different vehicle at the final concentration of 25 mg/mL. The vehicle composition is as follows: (1) 20% ethanol; 50% propylene glycol; 0.05% w/v Tween 20 and water (Mix); (2) PBS buffer (PBS). Test articles were administered to male Sprague-Dawley rats at a single oral dose of 50 mg/kg. Each article was tested in three rats. Blood samples (0.2-0.3 mL) were collected at the post-dose time of 10, 20, 40, 60,120, 180 and 360 minutes. The harvested blood was centrifuged to isolate plasma. The resulting plasma was separated and stored at -70°C. Plasma samples together with standards and quality control samples were treated to precipitate proteins, then analyzed by HPLC-MS, for the presence of PL-462, PL-100, PL-515 and PL-337.

[3] = vehicle Mix (20% ethanol; 50% propylene glycol; 0.05% w/v Tween 20 and water)
[4] = vehicle PBS, parent drug (PL-100 or PL-337) detected in plasma

logP ([1]; read-out: LogP)	Cmax [2]	Tmax [2]	AUC [2, 3]	logP [1]	delivery of PL-100 and PL-337 compared to non-aqueous formulations of PL-100 and PL-337 [2]	administered compound detected in the blood samples [2]	SMILES	AUC [2, 4]
3.6	498 ± 203 nM	40 min	0.675 ± 0.171 µg/hr*ml				COC(=O)N[C@H](C(=O)NCCCC[C@@H](CO)N(CC(C)C)S(=O)(=O)c1ccc(N)cc1)C(c1ccccc1)c1ccccc1 [PL-100, (1S,5S)-(1-{5-[(4-amino-benzenesulfonyl)-isobutyl-amino]-6-hydroxy-hexylcarbamoyl}-2,2-diphenyl-ethyl)-carbamic acid methyl ester]	
				-1.2	equivalent to slightly superior	None	COC(=O)N[C@H](C(=O)NCCCC[C@@H](COP(=O)(O)O)N(CC(C)C)S(=O)(=O)c1ccc(N)cc1)C(c1ccccc1)c1ccccc1.[Na] [PL-462, (1S,5S)-(1-{5-[(4-amino-benzenesulfonyl)-isobutyl-amino]-6-phosphonooxy-hexylcarbamoyl}-2,2-diphenyl-ethyl)-carbamic acid methyl ester sodium salt]	0.816 ± 0.295 (PL-100, detected) µg/hr*ml
	681 ± 131 nM	60 min	1.180 ± 0.196 µg/hr*ml				COC(=O)N[C@H](C(=O)NCCCC[C@@H](CO)N(CC(C)C)S(=O)(=O)c1ccc(N)c(F)c1)C(c1ccccc1)c1ccccc1 [PL-337, (1-{5-[(4-amino-3-fluoro-benzenesulfonyl)-isobutyl-amino]-6-hydroxy-hexylcarbamoyl}-2,2-diphenyl-ethyl)-carbamic acid methyl ester]	
-1.2							COC(=O)N[C@H](C(=O)NCCCC[C@@H](COP(=O)(O)O)N(CC(C)C)S(=O)(=O)c1ccc(N)cc1)C(c1ccccc1)c1ccccc1 [PL-461, (1S,5S)-(1-{5-[(4-amino-benzenesulfonyl)-isobutyl-amino]-6-phosphonooxy-hexylcarbamoyl}-2,2-diphenyl-ethyl)-carbamic acid methyl ester]	
-0.75					equivalent to slightly superior	None	COC(=O)N[C@H](C(=O)NCCCC[C@@H](COP(=O)(O)O)N(CC(C)C)S(=O)(=O)c1ccc(N)c(F)c1)C(c1ccccc1)c1ccccc1 [PL-515, (1S,5S)-(1-{5-[(4-amino-3-fluoro-benzenesulfonyl)-isobutyl-amino]-6-phosphonooxy-hexylcarbamoyl}-2,2-diphenyl-ethyl)-carbamic acid methyl ester]	1.075 ± 0.625 (PL-337, detected) µg/hr*ml
